Consider six molecules from patent US8569356B2, “Cyclin dependent kinase inhibitors” (University of Florida Research Foundation, Inc., priority 2005, dated 2013).

Entries after “also recorded” stand apart in the source; their conditions may differ.

Assay [1] has as its system prostate cancer cell line, Gs-α. The assay can be described thus: Matrigel cell invasion assay. In kind it is cell-based. The following applies: Matrigel invasion chambers, 36 h. The procedure:
A cell invasion assay was performed on an aggressive prostate cancer cell line, Gs-α, to determine the effects of selected compounds that inhibit cell proliferation.
The experiment was performed in six-well Matrigel two-tier invasion chambers (Collaborative Biomedical Products, Bedford, Mass., USA), using a protocol similar to that used successfully by others (see, e.g., Chien J, Wong E, Nikes E et al., Oncogene 1999; 18: 3376-3382, incorporated herein by reference). […]
While the membranes were still wet in culture dishes, the GFP-positive cells on the entire membrane were counted under fluorescent illumination. […] The total number of cells on the entire gel was counted. The data from invasion assay were corrected for cell growth during experimental periods as follows: the experimental cells were plated at a density of 10^5 cells per well in six-well control inserts in chemoattractant medium and increase in cell number were determined after 48 h. […] The results were expressed as mean±standard deviation. […]
Significance of differences in Percent Invasion according to treatment (or transfection of Metafectene vehicle alone) were assessed by Student's t-test.

The next assay relates to PC3 prostate tumor cells. The assay can be described thus: Mouse xenograft tumor model, PC3. Format: in vivo, SCID mice. As to conditions: intratumoral, 1:50 dilution (2 mM), compared with 1:50 DMSO in PBS in two controls. The protocol: A compound of the invention (Compound 1) was tested in a mouse xenograft tumor model to determine whether the compound can inhibit tumor growth in vivo.
SCID mice were subcutaneously implanted with PC3 prostate tumor cells in the flank and were administered intratumorally with controls (DMSO) or a test compound.
The two control animals were sacrificed when the total tumor volume (L×W×H) exceeded 1.5 cc. The treated animal was sacrificed because a small but significant skin ulceration was developing over the tumor.

For assay [2], the system named is BT549 breast cancer cells. The assay can be described thus: 3H-thymidine incorporation assay, BT549. Format: cell-based, human. The procedure: FIG. 4. Compounds #1, #7, and #11 inhibit proliferation of BT549 breast cancer cells. BT549 cells were treated for 24 hours with the indicated “Pocket #1” compounds. The effect of treatment on cell proliferation was quantitated by measuring the amount of ^3H-Thymidine incorporated into cellular DNA over a two hour time interval. The results are presented as the average of triplicate determinations ±standard deviation.
FIG. 5. Compounds predicted to bind to “Pocket #2” inhibit proliferation of BT549 breast cancer cells. BT549 cells were treated for 24 hours with the indicated “Pocket #2” compounds. The effect of treatment on cell proliferation was quantitated by measuring the amount of ^3H-Thymidine incorporated into cellular DNA over a two hour time interval. The results are presented as the average of triplicate determinations ±standard deviation.
Additional ^3H-thymidine incorporation assays were performed to determine whether the “Pocket #2” binding drugs (see Table 2) inhibit cell proliferation at concentrations lower than 100 μM.
(In general: Dividing cells build labelled thymidine or BrdU into new DNA.)

The test system of assay [3] is multiple human cancer cell lines. As to conditions: NCI screen, read-out: average 50% inhibitory concentration (IC50), proliferation; cited from earlier work.
The test system of a further assay is PC-3 tumor cells. Nature of the assay: PC-3 tumor in mice, intratumoral injection with CD44 RNA interference. Format: in vivo. As to conditions: combined with CD44 RNA interference, after 11 days of injection, three treated animals. The procedure:
The effect of 4-tert-Butyl-2-nitroaniline when combined with CD44 RNA interference was therefore investigated.
Seven-wk-old mice (Jackson Laboratory, Bar Harbor, Me.) were injected in the right flank with 2×10^6 PC-3 tumor cells in 500 μl liquid Matrigel. […] By 14 days after injection, a tumor mass was palpable and at 27 days, 4-tert-Butyl-2-nitroaniline and CD44 RNAi therapy commenced. Gene transfection was controlled for quantitation by injecting a constant 10 μg of vector. This approach involved mixing volume of DNA containing 10 μg of pU6BS (and subsequently pTracer) plasmid having the CD44 RNAi construct with 10 μl of Metafectene before injection into the tumor. Both Metafectene and DNA were diluted separately in 100 μl of sterile serum-free RPMI before mixing (see, e.g., Iczkowski K A, Omara-Opyene A L, and Klösel R., Molecular Biotechnology 2004; 28:97-103). The mixture was then allowed to stand for 30 minutes before injection to allow the formation of Metafectene:DNA complexes.
Intra-tumoral injection was performed five times weekly, angling the needle at different areas of the tumor during a given injection as well as varying the injection site for each injection occasion. Control animals were injected with 100 μl consisting of 50 μl empty vector/medium plus 50 μl of Metafectene.

In another assay the test system is DU145 cells. The assay can be described thus: 3H-thymidine incorporation assay, DU145. The following applies: 100 μM, 24 hours. Format: cell-based, human. From the text: (§1) FIG. 2. In silico molecular docking and preliminary analysis of potential Cyclin/Cdk2 inhibitors. (A) Cyclin A/Cdk2/p27 complex with spheres docked into the binding pocket (Pocket #1) and the pocket enclosed in a scoring grid (rectangular box). (B) Binding cleft shown filled with spheres, the top 10 hits superimposed into the binding pocket (All Hits), and the predicted mode of binding of individual hits in the Cyclin A/Cdk2/p27 pocket (Hits #3-10). (C) NMuMG (black bars) or DU145 cells (open bars) were treated for 24 hours with 100 μM of the indicated compounds and ^3H-thymidine incorporation was measured to assess rates of cell proliferation. Roscovitine is a known Cdk inhibitor and was included as a positive control. DMSO (0.1%) was included as a vehicle control. (D) Morphological change induced by 100 μM Hit #10 in NMuMG and DU145 cells after treatment for 24 hours.
(§2) Labeled thymidine (^3H-thymidine) incorporation assays were used to screen compounds at a concentration of 100 μM using mouse mammary epithelial cells and the human prostate cancer cell line DU145.
Human prostate cancer DU145 cells were plated at 30,000 cells per well in 24-well plates and allowed to attach for 24 hours. The cells were treated for 24 hours with either 100 μM of the indicated compounds, 0.1% DMSO as a vehicle control, or left untreated. The cells were pulsed with ^3H-thymidine for two hours. The cells were fixed in 10% trichloroacetic acid and washed a total of three times with 10% trichloroacetic acid. The ^3H-thymidine-labeled DNA was dissolved in 0.2% NaOH, mixed with scintillation fluid, and the associated radioactivity quantitated using a scintillation counter. These experiments were performed in triplicate and the results are presented as the average thymidine incorporation±standard deviation. […]

Assay [4] has as its target T1, Cdk4 (Homo sapiens, UniProt P11802).
T1 construct: endogenous in cells; host or cells: BT549
Nature of the assay: Immunofluorescence microscopy of Cdk4 distribution. In kind it is cell-based. From the text: (§3) It appears that compounds of the invention can cause redistribution of Cdk1, Cdk2, and Cdk4 in cells.

The target of assay [5] is T1, Cdk4. Nature of the assay: Immunoblot of cellular Cdk4 level in BT549 cells. In kind it is cell-based. The following applies: 24 or 48 hours, time- and dose-dependent. The protocol: (§4) BT549 cells were treated with the indicated Pocket #1 compounds for the indicated intervals. Cell lysates were prepared and the amounts of Cdk1, Cdk2, and Cdk4 were determined by immunoblot. Actin staining serves as a loading control. DMSO serves as a vehicle control.
(§5) Human breast cancer BT549 cells were treated as indicated for 24 or 48 hours with either 0.2% DMSO as a vehicle control, or compounds #3, #4, and #7 at the indicated concentrations. Cell lysates were prepared, normalized for protein content, resolved by SDS-PAGE and the proteins transferred to nitrocellulose. Levels of Cdk1, Cdk2, and Cdk4 were measured using primary antibodies specific for these proteins, followed by alkaline-phosphatase-conjugated secondary antibodies and colorimetric detection using the substrate NBT/BCIP.

The target of assay [6] is T2, Cdk2 (Homo sapiens, UniProt P24941). Nature of the assay: Immunoblot of cellular Cdk2 level in BT549 cells. Format: cell-based. Details: endogenous in cells; host or cells: BT549. As to conditions: 24 or 48 hours, time- and dose-dependent. The procedure: as §4, §5
In general terms: A western blot detects proteins with antibodies after separation by electrophoresis.

The next assay relates to NMuMG cells. The assay can be described thus: 3H-thymidine incorporation assay, NMuMG. In kind it is cell-based, mouse. The following applies: 100 μM, 24 hours.
Excerpt: as §1, §2
Seven of the molecules identified in Example 1 as having the top estimated binding energies (Hits/Compounds 3, 4, 6, 7, 8, 9, and 10) were obtained and tested for their ability to induce cell cycle arrest of mouse mammary NMuMG and DU145 human prostatic carcinoma cell lines in ^3H-thymidine incorporation assays (FIG. 2C). […] Thus at least five of the ten top-ranked compounds are cell permeable and induce an appreciable arrest of cancer cell proliferation.

The target of assay [7] is T3, Cdk1 (Homo sapiens, UniProt P06493).
T3 construct: endogenous in cells; host or cells: BT549
T3 sequence (P06493 whole entry): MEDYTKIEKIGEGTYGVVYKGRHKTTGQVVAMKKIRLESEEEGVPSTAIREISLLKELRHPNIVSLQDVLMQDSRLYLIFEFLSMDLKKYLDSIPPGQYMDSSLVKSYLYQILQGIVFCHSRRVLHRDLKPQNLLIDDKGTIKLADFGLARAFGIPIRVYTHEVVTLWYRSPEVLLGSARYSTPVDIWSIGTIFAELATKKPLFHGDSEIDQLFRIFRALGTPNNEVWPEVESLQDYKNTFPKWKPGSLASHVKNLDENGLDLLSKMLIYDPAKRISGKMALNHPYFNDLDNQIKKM
Nature of the assay: Immunoblot of cellular Cdk1 level in BT549 cells. In kind it is cell-based. The following applies: 24 or 48 hours, time- and dose-dependent. The protocol: as §4, §5

The target of assay [8] is T2, Cdk2. Nature of the assay: Immunofluorescence microscopy of Cdk2 distribution. As to conditions: MDA-MB-468 breast cancer cells, 24 hours. In kind it is cell-based. Details: endogenous in cells. The procedure: FIG. 6. Immunofluorescence microscopy of cellular distribution of Cdks in the absence (upper panels) and presence (lower panels) of a compound of the invention. MDA-MB-468 breast cancer cells were treated with the indicated concentration of pocket 1 compound #7 for 24 hours. Immunofluorescence microscopy was performed using an antibody to Cdk2. […] These aggregates are most apparent at sites of cell-cell contact.
as §3

For assay [9], the target named is T3, Cdk1. Nature of the assay: Immunofluorescence microscopy of Cdk1 distribution. Format: cell-based.
Excerpt: as §3

T1 sequence (P11802 whole entry): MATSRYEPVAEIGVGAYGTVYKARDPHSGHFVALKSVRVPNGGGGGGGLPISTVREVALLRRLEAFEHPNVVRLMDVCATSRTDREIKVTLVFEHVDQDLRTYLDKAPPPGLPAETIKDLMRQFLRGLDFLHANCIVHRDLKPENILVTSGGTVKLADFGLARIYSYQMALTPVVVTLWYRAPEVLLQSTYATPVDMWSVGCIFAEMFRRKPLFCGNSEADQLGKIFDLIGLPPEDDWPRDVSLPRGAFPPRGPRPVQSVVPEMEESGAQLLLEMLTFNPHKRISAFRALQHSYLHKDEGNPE

For the molecule `Cc1ccc(C(=O)/C=C/c2ccccc2)s1` [Compound 1], the “cell invasiveness in vitro” value in assay [1] was “inhibit cell invasiveness”. In the assay with PC3 prostate tumor cells, the tumor growth result is given as “markedly reduced tumor growth”. Further, the “potency compared with Compound 7” value in assay [2] is listed as “more potent than Compound 7”. In assay [2] (24 hours), the “effective concentration for inhibition of proliferation” value was “low micromolar concentrations” and the “inhibition of proliferation (3H-thymidine incorporation)” value is “inhibit the proliferation”.

For the molecule `COc1ccc2oc3cccc(NN(C)C)c3c(=O)c2c1` [Compound 2, 1-(N′,N′-Dimethyl-hydrazino)-7-methoxy-xanthen-9-one], the IC50 in assay [3] was 12 µM.

For the molecule `CC(C)(C)c1ccc(N)c([N+](=O)[O-])c1` [Compound 3, 4-tert-Butyl-2-nitroaniline], in the assay with PC-3 tumor cells, the “decrease of tumor volume” value is listed as “more than 50%”.

Consider `COc1ccc(C(C#N)=Cc2ccccn2)cc1` [Compound 7, 2-(4-methoxyphenyl)-3-pyridin-2-yl-prop-2-enenitrile], for which the “inhibition of cell proliferation (3H-thymidine incorporation)” value (from here on “inhibition of cell proliferation”) in the assay with DU145 cells and with NMuMG cells was “significantly inhibited proliferation” each time. At Cdk4 [4], the Cdk4 localization result is recorded as “aggregates appear on top of the nuclei”. Also, at Cdk4 [5], the “cellular level of Cdk4” value was “Decrease the Cellular Levels”. In addition, at Cdk2 [6], the “cellular level of Cdk2” value is “Decrease the Cellular Levels”. The “cellular level of Cdk1” value on Cdk1 [7] is on record as “Decrease the Cellular Levels”. For the same molecule, at Cdk2 [8], the Cdk2 localization result is given as “aggregates appear primarily at cell-cell junctions; also recorded: change in Cdk2 localization consistent with aggregation”. Moreover, the “inhibition of proliferation (3H-thymidine incorporation)” value in assay [2] (24 hours) is on record as “inhibit the proliferation”. For the same molecule, the Cdk1 localization entry at Cdk1 [9] is reported as “aggregates appear primarily at cell-cell junctions”.

Turning to `c1ccc(OSOc2ccccc2)cc1` [Compound 10], in the assay on DU145 cells, the “inhibition of cell proliferation” value is on record as “significantly inhibited proliferation” and the morphological change result is listed as “dramatic morphological change”. In the assay with NMuMG cells, the “inhibition of cell proliferation” value is given as “significantly inhibited proliferation” and the morphological change entry is given as “dramatic morphological change”.

For the molecule `O=C(N/N=C\c1cc(Br)ccc1O)N/N=C/c1cc(Br)ccc1O` [VDW9], the “inhibition of proliferation (3H-thymidine incorporation)” value in assay [2] (2 μM, 24 hours) is on record as “inhibited proliferation”; in assay [2] (10 μM, 24 hours), “inhibited proliferation”.
